Test results from patent EP0324328B1, “Use of the N-n-butyl derivative of desoxynojirimycin in the manufacture of a medicament inhibiting HIV-Virus” (priority 1987, dated 1989).
Like-named read-outs stand apart in the source and are kept apart here.

Key:
HIV [1] = details: cited from earlier work; for effect upon HIV infectivity: Gruters et al., Nature 330, 74-77 (1987)
T-45 cells = format: cell-based, human; details: for Estimated Cell Growth Virus-uninfected Day 7: no-drug control 1.2x10^6; for cytotoxicity: non-infected cells, over the concentration range used (Fig. 3, Table 1), result in words
Experimental: FIG. 1 is a schematic outline of the test procedure used to assess the cytotoxic effect of test compounds on T-cells either infected or non-infected with HIV and in parallel the HIV inhibitory activity of the test compounds. TCID is the tissue culture infectious dose. Cells were cultured in RPMI-1640 medium with 10% fetal calf serum containing 100 units/ml penicillin G and 100 µg/ml streptomycin.
(§1) The assay was run in 96 well plastic microtiter plates in which 0.2 ml of culture medium containing 10^4 T-cells are seeded into each well. RPMI-1640 supplemented with 10% fetal calf serum was used as the culture medium. In each assay, 6 wells are used. Three (1-3) are infected with 10^4 TCID/well of HIV-1 or HIV-2 and to the other three (4-6) culture medium alone is added. Medium is changed at the same intervals for each test compound. The detailed assay procedure is illustrated in Figures 1 and 2.
(§2) The efficacy of the test compounds used in this example was assessed as follows: 0.2 ml of culture medium containing 10^4 T-45 cells were transferred into each well of a 96-well flat-bottomed tissue-culture plastic plate and the cells were allowed to settle at 37°C (see Figure 1). After 4 hours the media were aspirated and replaced with media which contained the test compound. Following overnight incubation the media was aspirated and 10^4 TCID of virus (HIV-1 or HIV-2) was added to each well. Incubation was continued at 37°C in 5% CO2 for 1 hour. Thereafter, growth media containing the various compounds were added and incubation at 37°C was continued. On the fourth day the cell suspensions from each well were split and seeded into two new wells and 0.2 ml of fresh media with compounds was added. This was repeated on the seventh day. Cells were examined by microscopy during days 1 to 10 for the presence of syncytia, growth rate and the appearance of the cytopathic effect (CPE) (giant cells, pycnotic nuclei, loss of refractility). CPE (100%) was defined as no round, refractile, uniform cells remaining; only giant, ballooned pyknotic cells were present. The viability of HIV infected cultures was determined by a rough count/estimate of cells which underwent CPE in relation to round refractile uniform (normal) cells in a given culture.
Quantitative data on the effect of the various compounds on the non-infected cells (cytotoxicity) was obtained by comparison of their growth rate to control cells not exposed to drugs (Table 1). […] In addition, the MOLT-4 cell line was also used.

HIV [2] = assay: Inhibition of HIV-associated cytopathic effect (CPE) in T-45 cells; format: cell-based; details: HIV infected T-45 cells, various concentrations (Fig. 3); result in words
Experimental: FIG. 3 is a graphical representation in which the inhibition of HIV associated CPE (―% CPE) reduction) and test compound-associated cytotoxicity (---% cell death) is plotted against the media concentration in mg/ml of several test compounds (drugs). The cell viability data was determined for non-HIV infected cells. The test compounds were the N-methyl-, N-ethyl-, and N-butyl derivatives of deoxynojirimycin (DNJ), castanospermine (Cast), N-(5-carboxymethyl-1-pentyl)-1,5-imino-L-fucitol (LFT) and 1,4-dideoxy-1,4-imino-L-arabinitol (LAB).
After a suitable period of incubation, the cultures are scored for the presence of so-called syncytial cells (giant cells). Typical examples of such a test for the evaluation of inhibitors of HIV have been disclosed by Fung et al., Bio/Technology 5, 940-946 (1987); Tyms et al., Lancet, October 31, 1987, pp. 1025-1026; Gruters et al., Nature 330, 74-77 (1987); and Walker et al., Proc. Natl. Acad. Sci. USA 84, 8120-8124 (1987).
as §2, with “culture. Cells in wells which were incubated with compounds which appeared to inhibit or reduce HIV replication and in which there was marked cell proliferation were either transferred to larger wells (of a 24-well plate) or divided in order to maintain an approximate constant cell density to promote continuous cell division.” for “culture.”

HIV [3] = details: result in words; see Fleet et al., FEBS Lett., In Press, 1988; cited from earlier work
HIV-1 = assay: Virus titer (TCID) of HIV-1 infected T-cell cultures grown with test compound; format: cell-based; details: control 10^6; for HIV-1 (TCID): Table 2, 0.10 mg/ml, 10^4 T-45 or MOLT-4 cells (identical results), 10^4 TCID inoculum, after day 10; for VIRUS TITER HIV-1: Table 3, Example 2, 0.1 mg/ml, T-45 and MOLT-4 cells, 10^4 TCID on 10^4 cells
Experimental: (§3) Cell free suspensions of the HIV were prepared from infected cultures. The concentration of infectious particles was estimated on end-point titration assay using serial ten-fold dilutions. The approximate number of infectious particles in each preparation was determined by the highest dilution which contains infectious HIV as determined by synctial formation, cytopathicity [Leonard et al., Proc. Natl. Acad. Sci. USA 85, 3570-3574 (1988); Barre-Sinoussi et al., Science 220, 868-870 (1983)] and HIV antigen [Karpas et al., Lancet 1, 695-697 (1985)] synthesis after 10 days of culture with 10^4 T-cells. This represents the concentration of infectious particles, herein defined as the tissue culture infectious dose (TCID).
as §1
as §2, with “culture. Cells in wells which were incubated with compounds which appeared to inhibit or reduce HIV replication and in which there was marked cell proliferation were either transferred to larger wells (of a 24-well plate) or divided in order to maintain an approximate constant cell density to promote continuous cell division.” for “culture.”
(§4) That is, HIV-1 was first passaged in T-45 cells; likewise, HIV-1 was first passaged in MOLT-4 cells. The same passaging was done with HIV-2. The test compounds were used at a concentration of 0.1 mg/ml. 10^4 TCID of HIV-1 and separately of HIV-2 were used to infect 10^4 cells. Upon completion of the test, the virus titers were as follows: TABLE 3

HIV [4] = assay: TCID titre of culture supernatants of T-45 cells infected with HIV, Fig. 4; format: cell-based; details: for reduction of TCID titre of culture supernatants: T-45 cells infected with HIV, after 10 days in culture, result in words
Experimental: FIG. 4 is a graphical representation in which the viral titer (determined as TCID) is plotted against the concentration in mg/ml of various of the test compounds (drugs) of FIG. 3 in panels (a) and (b).
as §3
as §2, with “culture. Cells in wells which were incubated with compounds which appeared to inhibit or reduce HIV replication and in which there was marked cell proliferation were either transferred to larger wells (of a 24-well plate) or divided in order to maintain an approximate constant cell density to promote continuous cell division.” for “culture.”
Quantitative data on the effect of the various compounds on the non-infected cells (cytotoxicity) was obtained by comparison of their growth rate to control cells not exposed to drugs (Table 1). Fig. 4 and Table 2 show the relation between the TCID titre of culture supernatants of T-45 cells infected with HIV after 10 days in culture and the concentration of drug. […] The inability of any of these drugs alone to totally reduce the TCID may be due to heterogeneity of virus production or spread. […] In addition, the MOLT-4 cell line was also used.

HIV-2 = assay: Virus titer (TCID) of HIV-2 infected T-cell cultures grown with test compound; format: cell-based; details: control 10^6; for HIV-2 (TCID): Table 2, 0.10 mg/ml, 10^4 T-45 or MOLT-4 cells (identical results), 10^4 TCID inoculum, after day 10; for VIRUS TITER HIV-2: Table 3, Example 2, 0.1 mg/ml, T-45 and MOLT-4 cells, 10^4 TCID on 10^4 cells
Experimental: as §3, §1
as §2, with “culture. Cells in wells which were incubated with compounds which appeared to inhibit or reduce HIV replication and in which there was marked cell proliferation were either transferred to larger wells (of a 24-well plate) or divided in order to maintain an approximate constant cell density to promote continuous cell division.” for “culture.”
as §4

[5] = system: B16-F10 murine melanoma cells; assay: Incorporation of radiolabeled galactose, mannose, glucose and thymidine into cells; format: cell-based; details: result in words

## O[C@H]1[C@H](O)[C@@H](O)CN2CC[C@H](O)[C@H]12 [Cast, castanospermine]
HIV [1]; background literature, b4
  reduction in virion infectivity: only a modest reduction in virion infectivity
T-45 cells; Dosage 0.02 mg/ml
  Estimated Cell Growth Virus-uninfected Day 7: 1.2x10^6
T-45 cells; Dosage 0.09 mg/ml
  Estimated Cell Growth Virus-uninfected Day 7: 1.0x10^6
T-45 cells; Dosage 0.18 mg/ml
  Estimated Cell Growth Virus-uninfected Day 7: 8.0x10^5
T-45 cells; Dosage 0.35 mg/ml
  Estimated Cell Growth Virus-uninfected Day 7: 8.0x10^5
T-45 cells; Dosage 0.70 mg/ml
  Estimated Cell Growth Virus-uninfected Day 7: Toxic
T-45 cells
  cytotoxicity: cytotoxic
HIV [2]
  effect on CPE formation: bell shaped dose-dependence
HIV [3]
  HIV inhibitory activity / effect on CPE: inhibition of the cytopathic effect (CPE) by the α-glucosidase I inhibitor castanospermine is confirmed

## OC[C@H]1NC[C@@H](O)[C@@H]1O [D-enantiomer of 1,4-dideoxy-1,4-imino-arabinitol, 1,4-dideoxy-1,4-imino-arabinitol]
HIV [3]
  HIV inhibitory activity / effect on CPE: very little effect on HIV replication

## OC[C@H]1NC[C@@H](O)[C@@H](O)[C@@H]1O [DMJ, deoxymannojirimycin]
HIV [1]
  effect upon HIV infectivity: absence of effect

## OC[C@H]1NC[C@H](O)[C@@H](O)[C@@H]1O [DNJ, 1,5-dideoxy-1,5-imino-D-glucitol]
HIV-1
  HIV-1 (TCID): 10^5 TCID
  VIRUS TITER HIV-1: 10^5
HIV [4]
  reduction of TCID titre of culture supernatants: reduced the TCID only partially
HIV-2
  HIV-2 (TCID): 10^5 TCID
  VIRUS TITER HIV-2: 10^5
HIV [1]
  effect upon HIV infectivity: positive effect
T-45 cells; Dosage 0.25 mg/ml
  Estimated Cell Growth Virus-uninfected Day 7: 1.4x10^6
T-45 cells; Dosage 0.50 mg/ml
  Estimated Cell Growth Virus-uninfected Day 7: 1.4x10^6
[5]; radiolabeled galactose
  galactose incorporation into the cells: substantially inhibited galactose incorporation into the cells at 1.0 mM or less
[5]; radiolabeled glucose
  glucose utilization/inhibition: inhibited in a normal dose-response manner
[5]; radiolabeled mannose
  mannose utilization: inhibited mannose utilization
[5]
  ^3H-Thymidine uptake into the cells: inhibited incorporation at 2.0 mM

## CCN1C[C@H](O)[C@@H](O)[C@H](O)[C@H]1CO [EtDNJ, N-ethyl-deoxynojirimycin]
HIV-1
  HIV-1 (TCID): 10^3 TCID
  VIRUS TITER HIV-1: 10^3
HIV [4]
  reduction of TCID titre of culture supernatants: reduced the TCID only partially
HIV [4]; at non-cytotoxic concentrations
  reduction of the virus titer / yield of infectious HIV: two to four log-order of reduction
HIV-2
  HIV-2 (TCID): 10^3 TCID
  VIRUS TITER HIV-2: 10^3
T-45 cells; Dosage 0.01 mg/ml
  Estimated Cell Growth Virus-uninfected Day 7: 1.2x10^6
T-45 cells; Dosage 0.05 mg/ml
  Estimated Cell Growth Virus-uninfected Day 7: 1.2x10^6
T-45 cells; Dosage 0.10 mg/ml
  Estimated Cell Growth Virus-uninfected Day 7: 1.3x10^6
T-45 cells
  cytotoxicity: cytotoxic
HIV [2]
  effect on CPE formation: bell shaped dose-dependence

## O[C@@H]1[C@@H](O)[C@@H](O)CN2CC[C@H](O)[C@@H]12 [L-1,6-diepicastanospermine]
HIV [3]
  HIV inhibitory activity / effect on CPE: neither the epimer L-1,6-diepicastanospermine nor the stereoisomer of castanospermine, L-6-epicastanospermine, were found to be inhibitory

## O[C@@H]1[C@@H](O)[C@@H](O)CN2CC[C@@H](O)[C@@H]12 [L-6-epicastanospermine]
HIV [3]
  HIV inhibitory activity / effect on CPE: neither the epimer L-1,6-diepicastanospermine nor the stereoisomer of castanospermine, L-6-epicastanospermine, were found to be inhibitory

## OC[C@@H]1NC[C@H](O)[C@H]1O [LAB, 1,4-dideoxy-1,4-imino-L-arabinitol]
HIV [4]
  reduction of TCID titre of culture supernatants: only able to reduce the TCID partially
T-45 cells; Dosage 0.10 mg/ml
  Estimated Cell Growth Virus-uninfected Day 7: 1.5x10^6
T-45 cells; Dosage 0.25 mg/ml
  Estimated Cell Growth Virus-uninfected Day 7: 1.5x10^6
T-45 cells; Dosage 0.50 mg/ml
  Estimated Cell Growth Virus-uninfected Day 7: 1.0x10^6
T-45 cells
  cytotoxicity: showed no cytotoxicity over the concentration range used
HIV [3]
  HIV inhibitory activity / effect on CPE: strong HIV inhibitory activity

## OC[C@@H]1[C@@H](O)[C@H](O)[C@@H](O)CN1Cc1ccccc1 [N-benzyl derivative]
HIV [3]
  HIV inhibitory activity / effect on CPE: Neither the azofuranose analog of glucose nor the N-benzyl derivative were found to have an effect on CPE

## OC[C@H]1NCC[C@@H](O)[C@@H]1O [fagomine]
HIV [3]
  HIV inhibitory activity / effect on CPE: no HIV inhibition was observed

## N-(5-carboxymethyl-1-pentyl)-1,5-imino-L-fucitol [LFT]
HIV [4]
  reduction of TCID titre of culture supernatants: only able to reduce the TCID partially
